# Target: a-Chymotrypsin from bovine pancreas (Bos taurus, UniProt P00766)
# Method: The basis of the mildness assay is the enzymatic activity of Chymotrypsin on a chromogenic substrate. Surfactant mildness is assessed by the effect of a surfactant on the enzyme protein. A harsh surfactant will degrade Chymotrypsin, leading to a lower optical density reading in the reaction well. The enzyme used for this assay is a-Chymotrypsin from bovine pancreas. The enzyme used is the chromogenic substrate for Chymotrypsin, N-Succinyl-Ala-Ala-Pro-Phe-pNA.
# The basis of the surfactant protein mildness detecting assay used was the enzymatic activity of Chymotrypsin on a chromogenic substrate. A harsh surfactant degrades Chymotrypsin, leading to a lower absorbance reading. Any reading greater than 0.8% is taken to be a pass for mildness.
# For the skin protein protection assay, 70 μl stock buffer solution (33 mM of Tris pH8.0, 180 mM of NaCl, 1 mM of CaCl2), 10 μl substrate stock solution (Ala-Ala-Pro-Phe-pNA; 4 mg/ml) and 20 μl enzyme (α-Chyotrypsin; 10 ng per well) were added to the wells of a 96-well plate together with 100 ul of the formulations pre-diluted 1:10 in water. Reaction mixes were incubated for 45 minutes before colorimetric measurements were taken at 405 nm by a SpectraMax plate reader.
substance,measurement,value
Saponin extract from Zizyphus joazero [hh],Mildness Lsmean (least squares mean of Absorbance values),0.36
